Data from PubChem BioAssay (NCI).
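Growth conditions: 96-well plates. Treatment: test compound, 48 hours, 5 concentrations. Analysis: linear interpolation between bracketing concentrations; unreached endpoints set to highest concentration. GI50 = concentration required for 50% inhibition of growth. TGI: total growth inhibition.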

Key:
Assay in all cases: NCI anticancer screen, dose series, 48 h
SK-MEL-2 melanoma = tested on: SK-MEL-2 melanoma
IGROV1 ovarian = tested on: IGROV1 ovarian
OVCAR-4 ovarian = tested on: OVCAR-4 ovarian
RXF 393 renal = tested on: RXF 393 renal
HCT-15 colon = tested on: HCT-15 colon
NCI-H460 lung = tested on: NCI-H460 lung
SF-295 CNS = tested on: SF-295 CNS
NCI-H226 lung = tested on: NCI-H226 lung
SK-OV-3 ovarian = tested on: SK-OV-3 ovarian
UACC-62 melanoma = tested on: UACC-62 melanoma
SK-MEL-5 melanoma = tested on: SK-MEL-5 melanoma
CAKI-1 renal = tested on: CAKI-1 renal
HOP-92 NSCLC = tested on: HOP-92 NSCLC
MCF7 breast = tested on: MCF7 breast
NCI/ADR-RES ovarian = tested on: NCI/ADR-RES ovarian
U251 CNS = tested on: U251 CNS
DU-145 prostate = tested on: DU-145 prostate
A498 renal = tested on: A498 renal
CCRF-CEM leukemia = tested on: CCRF-CEM leukemia
LOX IMVI melanoma = tested on: LOX IMVI melanoma
SNB-75 CNS = tested on: SNB-75 CNS
MDA-MB-435 = tested on: MDA-MB-435
UACC-257 melanoma = tested on: UACC-257 melanoma
ACHN renal = tested on: ACHN renal
RPMI-8226 leukemia = tested on: RPMI-8226 leukemia
OVCAR-8 ovarian = tested on: OVCAR-8 ovarian
A549 NSCLC = tested on: A549 NSCLC
COLO 205 colon = tested on: COLO 205 colon
SK-MEL-28 melanoma = tested on: SK-MEL-28 melanoma
KM12 colon = tested on: KM12 colon
UO-31 renal = tested on: UO-31 renal
T-47D breast = tested on: T-47D breast
BT-549 breast = tested on: BT-549 breast
SNB-19 CNS = tested on: SNB-19 CNS
PC-3 prostate = tested on: PC-3 prostate
SF-268 CNS = tested on: SF-268 CNS
HT29 colon = tested on: HT29 colon
HS 578T breast = tested on: HS 578T breast
OVCAR-3 ovarian = tested on: OVCAR-3 ovarian
SF-539 CNS = tested on: SF-539 CNS
OVCAR-5 ovarian = tested on: OVCAR-5 ovarian
HOP-62 NSCLC = tested on: HOP-62 NSCLC
786-0 renal = tested on: 786-0 renal
HCT-116 colon = tested on: HCT-116 colon
MOLT-4 leukemia = tested on: MOLT-4 leukemia
MALME-3M melanoma = tested on: MALME-3M melanoma
NCI-H23 lung = tested on: NCI-H23 lung
SW-620 colon = tested on: SW-620 colon
SN12C renal = tested on: SN12C renal
HCC-2998 colon = tested on: HCC-2998 colon
TK-10 renal = tested on: TK-10 renal
HL-60(TB) leukemia = tested on: HL-60(TB) leukemia
M14 melanoma = tested on: M14 melanoma
NCI-H522 lung = tested on: NCI-H522 lung
SR leukemia = tested on: SR leukemia
MDA-MB-231 breast = tested on: MDA-MB-231 breast
K-562 leukemia = tested on: K-562 leukemia

## CNc1ncc2cc(Oc3ccc(F)cc3F)c(=O)n(C)c2n1
SK-MEL-2 melanoma
  GI50: > 25 µM
  TGI: > 25 µM
IGROV1 ovarian
  GI50: > 25 µM
  TGI: > 25 µM
OVCAR-4 ovarian
  GI50: > 25 µM
  TGI: > 25 µM
RXF 393 renal
  GI50: > 19.3 µM
  TGI: > 25 µM
HCT-15 colon
  GI50: > 25 µM
  TGI: > 25 µM
NCI-H460 lung
  GI50: > 25 µM
  TGI: > 25 µM
SF-295 CNS
  GI50: > 25 µM
  TGI: > 25 µM
NCI-H226 lung
  GI50: > 25 µM
  TGI: > 25 µM
SK-OV-3 ovarian
  GI50: > 25 µM
  TGI: > 25 µM
UACC-62 melanoma
  GI50: > 25 µM
  TGI: > 25 µM
SK-MEL-5 melanoma
  GI50: > 25 µM
  TGI: > 25 µM
CAKI-1 renal
  GI50: > 25 µM
  TGI: > 25 µM
HOP-92 NSCLC
  GI50: 3.82 µM
  TGI: > 25 µM
MCF7 breast
  GI50: > 25 µM
  TGI: > 25 µM
NCI/ADR-RES ovarian
  GI50: > 25 µM
  TGI: > 25 µM
U251 CNS
  GI50: > 25 µM
  TGI: > 25 µM
DU-145 prostate
  GI50: > 25 µM
  TGI: > 25 µM
A498 renal
  GI50: 11.9 µM
  TGI: > 25 µM
CCRF-CEM leukemia
  GI50: > 25 µM
  TGI: > 25 µM
LOX IMVI melanoma
  GI50: > 25 µM
  TGI: > 25 µM
SNB-75 CNS
  GI50: 9.33 µM
  TGI: > 25 µM
MDA-MB-435
  GI50: > 25 µM
  TGI: > 25 µM
UACC-257 melanoma
  GI50: > 25 µM
  TGI: > 25 µM
ACHN renal
  GI50: > 25 µM
  TGI: > 25 µM
RPMI-8226 leukemia
  GI50: > 25 µM
  TGI: > 25 µM
OVCAR-8 ovarian
  GI50: > 25 µM
  TGI: > 25 µM
A549 NSCLC
  GI50: > 25 µM
  TGI: > 25 µM
COLO 205 colon
  GI50: > 25 µM
  TGI: > 25 µM
SK-MEL-28 melanoma
  GI50: > 25 µM
  TGI: > 25 µM
KM12 colon
  GI50: > 25 µM
  TGI: > 25 µM
UO-31 renal
  GI50: > 25 µM
  TGI: > 25 µM
T-47D breast
  GI50: > 25 µM
  TGI: > 25 µM
BT-549 breast
  GI50: > 25 µM
  TGI: > 25 µM
SNB-19 CNS
  GI50: > 25 µM
  TGI: > 25 µM
PC-3 prostate
  GI50: > 25 µM
  TGI: > 25 µM
SF-268 CNS
  GI50: > 25 µM
  TGI: > 25 µM
HT29 colon
  GI50: > 25 µM
  TGI: > 25 µM
HS 578T breast
  GI50: > 25 µM
  TGI: > 25 µM
OVCAR-3 ovarian
  GI50: > 25 µM
  TGI: > 25 µM
SF-539 CNS
  GI50: > 25 µM
  TGI: > 25 µM
OVCAR-5 ovarian
  GI50: > 25 µM
  TGI: > 25 µM
HOP-62 NSCLC
  GI50: > 25 µM
  TGI: > 25 µM
786-0 renal
  GI50: > 25 µM
  TGI: > 25 µM
HCT-116 colon
  GI50: > 25 µM
  TGI: > 25 µM
MOLT-4 leukemia
  GI50: > 25 µM
  TGI: > 25 µM
MALME-3M melanoma
  GI50: > 25 µM
  TGI: > 25 µM
NCI-H23 lung
  GI50: > 25 µM
  TGI: > 25 µM
SW-620 colon
  GI50: > 25 µM
  TGI: > 25 µM
SN12C renal
  GI50: > 25 µM
  TGI: > 25 µM
HCC-2998 colon
  GI50: > 25 µM
  TGI: > 25 µM
TK-10 renal
  GI50: > 23.1 µM
  TGI: > 25 µM
HL-60(TB) leukemia
  GI50: > 25 µM
  TGI: > 25 µM
M14 melanoma
  GI50: > 25 µM
  TGI: > 25 µM
NCI-H522 lung
  GI50: > 25 µM
  TGI: > 25 µM
SR leukemia
  GI50: > 25 µM
  TGI: > 25 µM
MDA-MB-231 breast
  GI50: > 24.1 µM
  TGI: > 25 µM
K-562 leukemia
  GI50: > 25 µM
  TGI: > 25 µM
